± gives the expanded uncertainty stated by the source.
Conditions: 101.33 kPa, Liquid, Vibrating tube method

Row | Compound | mass density (293.15 K) [kg/m3] | mass density (298.15 K) [kg/m3] | mass density (303.15 K) [kg/m3] | mass density (308.15 K) [kg/m3] | mass density (313.15 K) [kg/m3] | mass density (318.15 K) [kg/m3] | mass density (323.15 K) [kg/m3] | mass density (328.15 K) [kg/m3]
1 | CC(CC(C)(C)C)CP(=O)([O-])CC(C)CC(C)(C)C.CCCCCCCCCCCCCC[P+](CCCCCC)(CCCCCC)CCCCCC | 894 ± 11 | 890.8 ± 11 | 887.7 ± 11 | 884.6 ± 11 | 881.5 ± 11 | 878.4 ± 11 | 875.3 ± 11 | 872.3 ± 11
2 | CC(=O)[O-].CCn1cc[n+](C)c1 [1-ethyl-3-methylimidazolium acetate] | 1101.5 ± 12 | 1098.3 ± 12 | 1095.1 ± 12 | 1092 ± 12 | 1088.9 ± 12 | 1085.8 ± 12 | 1082.8 ± 12 | 1079.7 ± 12
3 | CCOS(=O)(=O)[O-].CCn1cc[n+](C)c1 [1-ethyl-3-methylimidazolium ethyl sulfate] | 1236.7 ± 13 | 1233.2 ± 12 | 1229.8 ± 12 | 1226.3 ± 12 | 1222.9 ± 12 | 1219.5 ± 12 | 1216.2 ± 12 | 1212.8 ± 12
4 | CCn1cc[n+](C)c1.CS(=O)(=O)[O-] [1-ethyl-3-methylimidazolium methanesulfonate] | 1244.4 ± 13 | 1240.9 ± 13 | 1237.4 ± 13 | 1233.9 ± 12 | 1230.5 ± 12 | 1227 ± 12 | 1223.7 ± 12 | 1220.3 ± 12

Further lines, results first:

Row | mass density (293.15 K) [kg/m3] | mass density (298.15 K) [kg/m3] | mass density (303.15 K) [kg/m3] | mass density (308.15 K) [kg/m3] | mass density (313.15 K) [kg/m3] | mass density (318.15 K) [kg/m3] | mass density (323.15 K) [kg/m3] | mass density (328.15 K) [kg/m3] | Compound
5 | 1119.2 ± 12 | 1116.1 ± 12 | 1113 ± 12 | 1109.9 ± 12 | 1106.9 ± 12 | 1103.8 ± 12 | 1100.8 ± 12 | 1097.8 ± 12 | CCn1cc[n+](C)c1.N#C[S-] [1-ethyl-3-methylimidazolium thiocyanate]
6 | 1347.2 ± 14 | 1344.3 ± 14 | 1341.4 ± 13 | 1338.5 ± 13 | 1335.7 ± 13 | 1332.9 ± 13 | 1330.2 ± 13 | 1327.4 ± 13 | COS(=O)(=O)[O-].C[N+](CCO)(CCO)CCO [tris(2-hydroxyethyl) methylammonium methylsulfate]

Reference: the NIST ThermoML archive (doi:10.1021/je400231q)
